The source made the active and inactive calls. The calls are words filed in the database; no cut-off is given here.
Columns and labels:
[1] = system: DU-145; assay: Effect on Src protein level in human DU145 cells at 0.1 to 2 uM after 2 hrs by Western blot analysis; assay type: functional, cell-based
[2] = Inhibition of MEK after 60 mins by radiometric assay
[3] = system: DU-145; assay: Induction of apoptosis in human DU145 cells assessed as late apoptotic cells at 5 uM after 72 hrs by AnnexinV-propidium iodide based FACS flow cytometry; assay type: functional
[4] = system: DU-145; assay: Cell cycle arrest in human DU145 cells assessed as accumulation in S phase at 0.5 uM after 24 hrs by FACS flow cytometry; assay type: functional
[5] = system: A549; assay: Antiproliferative activity against human A549 cells after 72 hrs by MTT assay; assay type: functional, cell-based; settings: A549, 72 h
[6] = system: DU-145; assay: Induction of apoptosis in human DU145 cells assessed as necrotic cells at 10 uM after 72 hrs by AnnexinV-propidium iodide based FACS flow cytometry; assay type: functional
[7] = target: Fibroblast growth factor receptor 1 (Homo sapiens, UniProt P11362); assay: Inhibition of FGFR-1 after 60 mins by radiometric assay
[8] = system: DU-145; assay: Cell cycle arrest in human DU145 cells assessed as accumulation in S phase at 1 uM after 24 hrs by FACS flow cytometry; assay type: functional
[9] = system: DU-145; assay: Effect on JAK1 protein level in human DU145 cells at 0.1 to 2 uM after 2 hrs by Western blot analysis; assay type: functional, cell-based
[10] = system: DU-145; assay: Decrease in cyclin D1 protein level in human DU145 cells at 0.1 to 2 uM after 2 hrs by Western blot analysis; assay type: functional, cell-based
[11] = system: DU-145; assay: Effect on phosphorylated-JAK2 protein level in human DU145 cells at 0.1 to 2 uM after 24 hrs by Western blot analysis; assay type: functional, cell-based
[12] = system: PC-3; assay: Antiproliferative activity against human PC3 cells after 72 hrs by MTT assay; assay type: functional, cell-based; settings: PC-3, 72 h
[13] = system: DU-145; assay: Downregulation of Mcl-1 protein in human DU145 cells at 0.1 to 2 uM after 2 hrs by Western blot analysis; assay type: functional, cell-based
[14] = system: DU-145; assay: Effect on Tyr416 phosphorylated-Src protein level in human DU145 cells at 0.1 to 2 uM after 2 hrs by Western blot analysis; assay type: functional, cell-based
[15] = target: Aurora kinase A (Homo sapiens, UniProt O14965); assay: Inhibition of Aurora-A after 60 mins by radiometric assay
[16] = Inhibition of Raf Y340D/Y341D mutant after 60 mins by radiometric assay
[17] = target: Protein kinase C alpha type (Homo sapiens, UniProt P17252); assay: Inhibition of PKC-alpha after 60 mins by radiometric assay
[18] = target: Signal transducer and activator of transcription 5A (Homo sapiens) (UniProt P42229); assay: Inhibition of STAT5 phosphorylation at Tyr694 after 2 hrs by Western blot analysis
[19] = target: Signal transducer and activator of transcription 3 (Homo sapiens) (UniProt P40763); assay: Inhibition of STAT3 interaction with DNA binding site in human DU145 cells at 05 to 10 uM after 2 hrs by EMSA; assay type: cell-based; settings: DU-145
[20] = system: DU-145; assay: Effect on […] phosphorylated-Src protein level in human DU145 cells at 0.1 to 2 uM after 2 hrs by Western blot analysis; assay type: functional, cell-based
[21] = target: Signal transducer and activator of transcription 3 (Homo sapiens) (UniProt P40763); assay: Inhibition of STAT3 phosphorylation at Tyr705 in human DU145 cells at 2 uM within 2 hrs by Western blot analysis; assay type: cell-based; settings: DU-145
[22] = system: DU-145; assay: Induction of apoptosis in human DU145 cells assessed as late apoptotic cells at 1 uM after 72 hrs by AnnexinV-propidium iodide based FACS flow cytometry; assay type: functional
[23] = target: Mitogen-activated protein kinase 8 (Homo sapiens, UniProt P45983); assay: Inhibition of JNK1 after 60 mins by radiometric assay
[24] = system: DU-145; assay: Effect on phosphorylated-JAK2 protein level in human DU145 cells at 0.1 to 2 uM after 2 hrs by Western blot analysis; assay type: functional, cell-based
[25] = system: DU-145; assay: Induction of apoptosis in human DU145 cells assessed as viable cells at 5 uM after 72 hrs by AnnexinV-propidium iodide based FACS flow cytometry; assay type: functional; settings: DU-145, 72 h, read-out: Activity
[26] = system: A-431; assay: Antiproliferative activity against human A431 cells after 72 hrs by MTT assay; assay type: functional, cell-based; settings: A-431, 72 h
[27] = system: DU-145; assay: Induction of apoptosis in human DU145 cells assessed as early apoptotic cells at 5 uM after 72 hrs by AnnexinV-propidium iodide based FACS flow cytometry; assay type: functional
[28] = target: Tyrosine-protein kinase Lyn (Homo sapiens, UniProt P07948); assay: Inhibition of LYN after 60 mins by radiometric assay
[29] = target: Serine/threonine-protein kinase B-raf (Homo sapiens, UniProt P15056, V600E); assay: Inhibition of B-Raf V600E mutant after 60 mins by radiometric assay
[30] = target: 3-phosphoinositide-dependent protein kinase 1 (Homo sapiens, UniProt O15530); assay: Inhibition of PDK1 after 60 mins by radiometric assay
[31] = target: Serine/threonine-protein kinase B-raf (Homo sapiens, UniProt P15056); assay: Inhibition of B-Raf after 60 mins by radiometric assay
[32] = system: DU-145; assay: Decrease in STAT3 protein level in human DU145 cells after 24 hrs by Western blot analysis; assay type: functional, cell-based
[33] = system: HT-29; assay: Antiproliferative activity against human HT-29 cells after 72 hrs by MTT assay; assay type: functional, cell-based; settings: HT-29, 72 h
[34] = target: Mitogen-activated protein kinase 1 (Homo sapiens, UniProt P28482); assay: Inhibition of Erk2 after 60 mins by radiometric assay
[35] = system: DU-145; assay: Effect on JAK2 protein level in human DU145 cells at 0.1 to 2 uM after 24 hrs by Western blot analysis; assay type: functional, cell-based
[36] = system: DU-145; assay: Cell cycle arrest in human DU145 cells assessed as accumulation in G0/G1 phase at 0.2 uM after 24 hrs by FACS flow cytometry; assay type: functional
[37] = system: DU-145; assay: Decrease in c-Myc protein level in human DU145 cells at 0.1 to 2 uM after 2 hrs by Western blot analysis; assay type: functional, cell-based

Sequence of Signal transducer and activator of transcription 3 (Homo sapiens) (P40763 whole entry): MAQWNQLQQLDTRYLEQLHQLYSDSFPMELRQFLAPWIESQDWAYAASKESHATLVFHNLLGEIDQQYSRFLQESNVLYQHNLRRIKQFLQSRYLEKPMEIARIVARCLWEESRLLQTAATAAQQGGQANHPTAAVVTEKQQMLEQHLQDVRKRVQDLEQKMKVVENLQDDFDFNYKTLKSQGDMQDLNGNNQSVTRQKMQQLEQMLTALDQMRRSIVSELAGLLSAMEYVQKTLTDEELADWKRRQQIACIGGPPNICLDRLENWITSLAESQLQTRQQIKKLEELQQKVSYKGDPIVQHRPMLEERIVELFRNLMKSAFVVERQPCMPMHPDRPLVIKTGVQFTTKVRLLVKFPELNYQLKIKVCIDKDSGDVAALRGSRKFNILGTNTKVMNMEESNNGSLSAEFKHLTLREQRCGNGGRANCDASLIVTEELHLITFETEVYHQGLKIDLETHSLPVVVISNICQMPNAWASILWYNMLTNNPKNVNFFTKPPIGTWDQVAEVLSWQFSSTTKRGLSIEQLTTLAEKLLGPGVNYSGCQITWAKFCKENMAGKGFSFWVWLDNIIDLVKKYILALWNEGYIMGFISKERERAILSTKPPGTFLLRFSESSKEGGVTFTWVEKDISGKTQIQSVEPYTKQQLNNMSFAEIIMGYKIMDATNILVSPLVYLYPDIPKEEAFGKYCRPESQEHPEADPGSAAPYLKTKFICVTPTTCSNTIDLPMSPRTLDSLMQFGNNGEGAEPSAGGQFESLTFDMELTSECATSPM
Sequence of Serine/threonine-protein kinase B-raf (Homo sapiens, UniProt P15056) (P15056 whole entry): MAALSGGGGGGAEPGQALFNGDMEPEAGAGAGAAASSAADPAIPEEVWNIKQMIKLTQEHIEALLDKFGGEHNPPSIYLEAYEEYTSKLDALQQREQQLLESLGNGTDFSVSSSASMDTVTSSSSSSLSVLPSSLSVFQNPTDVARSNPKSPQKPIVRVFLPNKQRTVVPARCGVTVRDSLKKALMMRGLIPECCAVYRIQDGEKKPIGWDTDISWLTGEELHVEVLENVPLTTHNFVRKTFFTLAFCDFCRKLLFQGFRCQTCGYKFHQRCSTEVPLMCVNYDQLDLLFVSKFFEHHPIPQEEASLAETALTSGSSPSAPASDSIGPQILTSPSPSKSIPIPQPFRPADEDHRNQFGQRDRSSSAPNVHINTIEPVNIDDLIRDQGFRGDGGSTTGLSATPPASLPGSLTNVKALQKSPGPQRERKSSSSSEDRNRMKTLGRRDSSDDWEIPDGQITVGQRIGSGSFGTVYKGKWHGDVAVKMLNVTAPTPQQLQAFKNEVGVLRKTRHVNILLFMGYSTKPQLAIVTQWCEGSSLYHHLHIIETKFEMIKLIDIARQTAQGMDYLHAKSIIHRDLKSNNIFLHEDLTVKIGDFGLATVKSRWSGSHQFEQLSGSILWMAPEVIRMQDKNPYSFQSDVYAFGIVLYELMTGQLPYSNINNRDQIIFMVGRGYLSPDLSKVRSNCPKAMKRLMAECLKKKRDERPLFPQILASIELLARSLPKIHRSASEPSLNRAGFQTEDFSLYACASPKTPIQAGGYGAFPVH
Sequence of Serine/threonine-protein kinase B-raf (Homo sapiens, UniProt P15056, V600E) (P15056 2-766 V600E limits assumed): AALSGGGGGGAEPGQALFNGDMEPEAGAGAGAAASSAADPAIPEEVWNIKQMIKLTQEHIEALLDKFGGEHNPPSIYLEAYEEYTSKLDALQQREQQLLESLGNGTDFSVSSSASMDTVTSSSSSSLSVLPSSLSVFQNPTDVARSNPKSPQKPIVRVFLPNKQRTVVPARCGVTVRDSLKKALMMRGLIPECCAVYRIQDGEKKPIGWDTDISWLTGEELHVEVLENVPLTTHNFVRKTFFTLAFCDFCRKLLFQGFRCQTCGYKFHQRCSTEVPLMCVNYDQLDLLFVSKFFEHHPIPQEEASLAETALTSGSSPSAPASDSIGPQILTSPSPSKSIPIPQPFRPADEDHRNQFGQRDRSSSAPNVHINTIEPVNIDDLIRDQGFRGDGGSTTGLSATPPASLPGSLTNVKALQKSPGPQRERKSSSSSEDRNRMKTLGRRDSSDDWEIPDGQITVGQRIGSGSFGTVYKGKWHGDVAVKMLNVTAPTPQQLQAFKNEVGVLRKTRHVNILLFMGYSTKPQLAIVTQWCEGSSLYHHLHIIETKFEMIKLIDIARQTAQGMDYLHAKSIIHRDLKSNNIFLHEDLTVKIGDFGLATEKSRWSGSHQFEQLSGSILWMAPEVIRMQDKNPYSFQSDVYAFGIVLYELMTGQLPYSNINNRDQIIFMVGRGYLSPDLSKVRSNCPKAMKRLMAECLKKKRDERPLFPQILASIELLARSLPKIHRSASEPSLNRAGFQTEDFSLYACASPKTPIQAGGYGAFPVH
Sequence of Fibroblast growth factor receptor 1 (P11362 whole entry): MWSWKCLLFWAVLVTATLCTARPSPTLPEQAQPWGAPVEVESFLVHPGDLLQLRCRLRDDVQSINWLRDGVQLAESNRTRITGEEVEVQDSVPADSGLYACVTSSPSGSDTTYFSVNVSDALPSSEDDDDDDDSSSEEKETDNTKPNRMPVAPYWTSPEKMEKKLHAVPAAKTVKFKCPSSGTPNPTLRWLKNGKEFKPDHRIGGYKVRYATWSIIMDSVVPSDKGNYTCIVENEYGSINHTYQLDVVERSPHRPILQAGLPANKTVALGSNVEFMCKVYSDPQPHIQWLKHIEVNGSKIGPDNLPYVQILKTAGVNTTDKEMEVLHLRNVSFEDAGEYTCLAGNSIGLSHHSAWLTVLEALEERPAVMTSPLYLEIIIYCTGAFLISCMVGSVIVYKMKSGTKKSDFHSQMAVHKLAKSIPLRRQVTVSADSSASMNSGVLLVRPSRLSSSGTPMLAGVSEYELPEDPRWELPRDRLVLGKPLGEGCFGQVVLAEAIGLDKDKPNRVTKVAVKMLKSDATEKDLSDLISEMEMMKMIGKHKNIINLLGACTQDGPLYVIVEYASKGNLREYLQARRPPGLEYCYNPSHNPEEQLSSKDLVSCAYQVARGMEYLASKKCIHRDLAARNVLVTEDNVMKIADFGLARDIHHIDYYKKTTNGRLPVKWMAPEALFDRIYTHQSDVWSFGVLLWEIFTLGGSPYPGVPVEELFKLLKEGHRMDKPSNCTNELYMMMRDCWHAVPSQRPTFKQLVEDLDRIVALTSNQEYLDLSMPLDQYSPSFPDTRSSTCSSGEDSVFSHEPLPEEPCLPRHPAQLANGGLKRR
Sequence of Signal transducer and activator of transcription 5A (Homo sapiens) (P42229 whole entry): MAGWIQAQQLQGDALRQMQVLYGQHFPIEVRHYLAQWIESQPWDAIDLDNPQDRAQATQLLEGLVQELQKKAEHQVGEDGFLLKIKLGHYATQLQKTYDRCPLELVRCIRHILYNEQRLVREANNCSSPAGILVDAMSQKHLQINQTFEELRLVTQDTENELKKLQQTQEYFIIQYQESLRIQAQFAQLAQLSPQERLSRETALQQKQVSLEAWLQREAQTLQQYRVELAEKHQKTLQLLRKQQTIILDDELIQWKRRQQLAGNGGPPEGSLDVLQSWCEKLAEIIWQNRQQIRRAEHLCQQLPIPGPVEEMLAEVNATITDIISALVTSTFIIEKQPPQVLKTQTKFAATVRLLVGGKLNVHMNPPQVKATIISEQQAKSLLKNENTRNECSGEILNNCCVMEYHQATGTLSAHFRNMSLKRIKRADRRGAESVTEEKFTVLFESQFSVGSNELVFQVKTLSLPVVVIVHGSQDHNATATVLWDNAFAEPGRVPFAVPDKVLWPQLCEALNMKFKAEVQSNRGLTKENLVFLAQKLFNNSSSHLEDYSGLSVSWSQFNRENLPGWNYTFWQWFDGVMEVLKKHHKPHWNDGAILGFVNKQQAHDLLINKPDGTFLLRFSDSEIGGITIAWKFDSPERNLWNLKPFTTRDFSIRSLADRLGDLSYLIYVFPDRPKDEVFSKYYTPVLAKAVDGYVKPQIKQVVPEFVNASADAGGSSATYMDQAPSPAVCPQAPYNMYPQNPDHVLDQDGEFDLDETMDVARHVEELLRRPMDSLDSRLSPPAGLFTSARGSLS
Sequence of 3-phosphoinositide-dependent protein kinase 1 (O15530 whole entry): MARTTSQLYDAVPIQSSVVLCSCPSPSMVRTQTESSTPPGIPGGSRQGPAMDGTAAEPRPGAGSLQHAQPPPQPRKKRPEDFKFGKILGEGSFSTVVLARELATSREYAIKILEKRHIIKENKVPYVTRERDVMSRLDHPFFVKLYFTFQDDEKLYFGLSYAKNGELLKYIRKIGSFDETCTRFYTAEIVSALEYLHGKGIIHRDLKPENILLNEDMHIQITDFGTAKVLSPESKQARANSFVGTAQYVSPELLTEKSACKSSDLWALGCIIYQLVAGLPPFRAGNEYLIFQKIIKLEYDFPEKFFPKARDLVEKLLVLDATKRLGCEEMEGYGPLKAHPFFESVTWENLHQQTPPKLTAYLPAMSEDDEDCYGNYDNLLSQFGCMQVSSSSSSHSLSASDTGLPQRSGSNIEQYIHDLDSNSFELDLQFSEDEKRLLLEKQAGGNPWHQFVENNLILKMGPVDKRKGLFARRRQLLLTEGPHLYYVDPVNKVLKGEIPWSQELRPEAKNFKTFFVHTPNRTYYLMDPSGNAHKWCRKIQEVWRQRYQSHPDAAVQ
Sequence of Mitogen-activated protein kinase 1 (P28482 whole entry): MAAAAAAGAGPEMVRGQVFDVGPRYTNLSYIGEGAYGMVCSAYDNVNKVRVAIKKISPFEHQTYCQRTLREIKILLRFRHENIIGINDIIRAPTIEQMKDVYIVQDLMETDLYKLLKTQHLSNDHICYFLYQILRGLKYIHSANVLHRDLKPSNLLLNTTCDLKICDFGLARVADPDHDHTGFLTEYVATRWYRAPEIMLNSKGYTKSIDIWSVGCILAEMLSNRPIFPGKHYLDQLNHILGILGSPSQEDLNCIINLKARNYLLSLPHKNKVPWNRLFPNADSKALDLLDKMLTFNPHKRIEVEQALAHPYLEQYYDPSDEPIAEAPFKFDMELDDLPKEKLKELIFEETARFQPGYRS

- IC50 [2]: > 100 µM
- IC50 [5]: 3 µM
- IC50 [7]: 13.1 µM
- IC50 [12]: 11.7 µM
- IC50 [15]: 54.1 µM
- IC50 [16]: > 100 µM
- IC50 [17]: > 100 µM
- inhibition [18]: inactive
- inhibition [19]: Active
- inhibition [21]: Active
- IC50 [23]: > 100 µM
- IC50 [26]: 8.8 µM
- IC50 [28]: 23.8 µM
- IC50 [29]: > 100 µM
- IC50 [30]: 83.9 µM
- IC50 [31]: > 100 µM
- IC50 [33]: 7.2 µM
- IC50 [34]: > 100 µM
Structure (SMILES): O=C(Nc1ccc([N+](=O)[O-])cc1Cl)c1cc(Cl)ccc1O [NICLOSAMIDE]
- Activity [1]: inactive
- Activity [3]: 25.41%
- Activity [4]: 32.84%
- Activity [6]: 2.43%
- Activity [8]: 16.82%
- Activity [9]: inactive
- Activity [10]: Active
- Activity [11]: inactive
- Activity [13]: Active
- Activity [14]: inactive
- Activity [20]: inactive
- Activity [22]: 8.16%
- Activity [24]: inactive
- viability at 5 µM [25]: 61.9%
- Activity [27]: 10.44%
- Activity [32]: inactive
- Activity [35]: inactive
- Activity [36]: 48.4%
- Activity [37]: Active
